Values joined by “and” are separate entries in the source; they are usually repeats but may differ in a detail not shown here. Equal entries are not always repeated.
Molecular target: T1, human GCGR (Homo sapiens, UniProt P47871)
T1 construct: expressed in transfected cells; host or cells: HEK293 (hGluc-1HEK), pcDNA3.1, G418 selection
Assay: Cellular functional assay, cAMP readout (glucagon-stimulated cAMP, LANCE TR-FRET)
Type: cell-based
Details: HEK293 cells stably expressing full-length human GCGR; glucagon 100 pM; IC50 converted to Ki; read-out: Inhibition of cAMP Ki
Method: IC50 Values in Cellular Functional Assays: cAMP Readout
Full-length human GCGR (Accession Number: NM000160) subcloned into pcDNA3.1 was stably transfected into HEK293 cells (hGluc-1HEK) and maintained under G418 selection (500 μg/mL). Cell cultures were maintained in DMEM/F12 media supplemented with 10% FBS and 1% GlutaMax™ Supplement (Available from ThermoFisher Scientific, catalog #35050061). Glucagon stimulated cAMP was quantified using LANCE technology as per manufacturer instructions. On the day of the experiment, spent media was removed and cells were washed with Hank's Buffered Saline solution (HBSS), and cells harvested with non-enzymatic cell dissociation solution, then washed once with HBSS. Cells were re-suspended in stimulation buffer at a concentration of 0.83×10^6 cells/ml and cAMP detection antibody was added. 6 μl/well of this solution was then dispensed in a 384 well plate (cell density 5000 cells/well). Test compound was serially diluted in DMSO and 50 nl were dispensed on top of the cell solution and allowed to incubate for 30 minutes. 6 μl of a 2× glucagon solution (final concentration in assay 100 pM) was then added and the reaction was terminated after 5 minutes with the addition of detection mix. The resulting mixture was incubated, protected from light for 1.5 h. cAMP levels were quantified by TR-FRET in an EnVision instrument against a known standard. IC50's were generated by using a non-linear regression macro driven in Excel and converted to Ki values.

T1 sequence (P47871 26-477): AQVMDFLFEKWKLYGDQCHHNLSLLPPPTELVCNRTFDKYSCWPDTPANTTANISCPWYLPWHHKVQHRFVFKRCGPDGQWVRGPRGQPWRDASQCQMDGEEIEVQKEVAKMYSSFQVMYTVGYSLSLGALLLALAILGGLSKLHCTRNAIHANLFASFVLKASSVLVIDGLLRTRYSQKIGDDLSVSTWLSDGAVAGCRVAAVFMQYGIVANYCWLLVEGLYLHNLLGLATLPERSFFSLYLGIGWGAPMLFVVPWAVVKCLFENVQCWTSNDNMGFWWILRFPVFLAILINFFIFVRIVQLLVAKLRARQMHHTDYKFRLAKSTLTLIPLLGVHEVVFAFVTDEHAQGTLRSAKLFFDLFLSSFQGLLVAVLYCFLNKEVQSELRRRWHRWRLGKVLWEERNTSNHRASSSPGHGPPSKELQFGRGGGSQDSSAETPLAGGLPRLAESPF

SMILES	Ki
CC(C)CC(c1ccc(C(=O)NCCC(=O)O)cc1)n1ncc2cc(-c3ccc(C(C)(C)C)cc3)ccc21 (single isomer, unassigned) [Compound #37]	0.062 µM and 0.13 µM
CC(C)CC(c1ccc(C(=O)NCCC(=O)O)cc1)n1ncc2cc(-c3ccc(C(C)(C)C)cc3)ccc21 (single isomer, unassigned) [Compound #163]	0.465 µM
CC(C)CC(c1ccc(C(=O)NCCC(=O)O)cc1)n1ncc2cc(-c3ccc(C(C)(C)C)cc3)ccc21 (centres unmarked) [Compound #1, 3-(4-(1-(5-(4-(tert-Butyl)phenyl)-1H-indazol-1-yl)-3-methylbutyl)benzamido)propanoic acid]	0.09 µM and 0.159 µM
CC(C)CC(c1ccc(C(=O)NCCC(=O)O)nc1)n1cc2cc(-c3ccc(C(C)(C)C)cc3)ccc2n1 (centres unmarked) [Compound #2]	0.7 µM
CC(C)CC(c1ccc(C(=O)NCCC(=O)O)cc1)n1ncc2cc(-c3ccccc3)ccc21 (centres unmarked) [Compound #4]	1.1 µM
CC(C)CC(c1ccc(C(=O)NCCC(=O)O)cc1)n1ncc2cc(-c3ccc(F)cc3)ccc21 (centres unmarked) [Compound #5]	0.6 µM
CC(C)CC(c1ccc(C(=O)NCCC(=O)O)cc1)n1ncc2cc(-c3ccc4ncccc4c3)ccc21 (centres unmarked) [Compound #7]	0.8 µM
Cc1cc(Cl)ccc1-c1ccc2nn(C(CCC(F)(F)F)c3ccc(C(=O)NCCC(=O)O)cc3)cc2c1 (centres unmarked) [Compound #8, 3-[[4-[1-[5-(4-Chloro-2-methyl-phenyl)indazol-2-yl]-4,4,4-trifluorobutyl]benzoyl]amino]propanoic acid]	0.059 µM
CC(C)CC(c1ccc(C(=O)NCCC(=O)O)cc1)n1ncc2cc(-c3ccc(Cl)cc3Cl)ccc21 (centres unmarked) [Compound #9, 3-(4-(1-(5-(2,4-Dichlorophenyl)-1H-indazol-1-yl)-3-methylbutyl)benzamido)propanoic acid]	0.19 µM
O=C(O)CCNC(=O)c1ccc(C(CCC(F)(F)F)n2ncc3cc(-c4cc5ccccc5o4)ccc32)cc1 (centres unmarked) [Compound #11, 3-[[4-[1-[5-(Benzofuran-2-yl)indazol-1-yl]-4,4,4-trifluorobutyl]benzoyl]amino]propanoic acid]	0.175 µM
CC(C)CC(c1ccc(C(=O)NCCC(=O)O)cc1)n1ncc2cc(-c3cnn(C)c3)ccc21 (centres unmarked) [Compound #12, 3-(4-(3-Methyl-1-(5-(1-methyl-1H-pyrazol-4-yl)-1H-indazol-1-yl)butyl)benzamido)propanoic acid]	2.3 µM
CC(C)CC(c1ccc(C(=O)NCCC(=O)O)cc1)n1cc2cc(-c3cc4ccccc4o3)ccc2n1 (centres unmarked) [Compound #13]	0.076 µM
Cc1cc(Cl)ccc1-c1ccc2c(cnn2C(CC(C)C)c2ccc(C(=O)NCCC(=O)O)nc2)c1 (centres unmarked) [Compound #14, 3-(5-(1-(5-(4-Chloro-2-methylphenyl)-1H-indazol-1-yl)-3-methylbutyl)picolinamido)propanoic acid]	0.447 µM
O=C(O)CCNC(=O)c1ccc(C(CCC(F)(F)F)n2cc3cc(-c4ccc(C(F)(F)F)cc4Cl)ccc3n2)cc1 (centres unmarked) [Compound #16, 3-[[4-[1-[5-[2-Chloro-4-(trifluoromethyl)phenyl]indazol-2-yl]-4,4,4-trifluorobutyl]benzoyl]amino]propanoic acid]	0.065 µM
CC(C)CCn1cc(-c2ccc3nn(C(CC(C)C)c4ccc(C(=O)NCCC(=O)O)cc4)cc3c2)cn1 (centres unmarked) [Compound #17]	> 5.2 µM
Cc1c(-c2ccc(C(F)(F)F)cc2Cl)ccc2nn(C(CC(C)C)c3ccc(C(=O)NCCC(=O)O)cc3)cc12 (centres unmarked) [Compound #18, 3-(4-(1-(5-(2-Chloro-4-(trifluoromethyl)phenyl)-4-methyl-2H-indazol-2-yl)-3-methylbutyl)benzamido)propanoic acid]	0.014 µM and 0.044 µM
Cc1cc(C(F)(F)F)ccc1-c1ccc2nn(C(CC(C)C)c3ccc(C(=O)NCCC(=O)O)nc3)cc2c1 (centres unmarked) [Compound #19]	0.047 µM and 0.049 µM
Cc1cc(Cl)ccc1-c1ccc2nn(C(CC(C)C)c3ccc(C(=O)NCCC(=O)O)cc3)cc2c1C (centres unmarked) [Compound #20, 3-(4-(1-(5-(4-Chloro-2-methylphenyl)-4-methyl-2H-indazol-2-yl)-3-methylbutyl)benzamido)propanoic acid]	0.025 µM

SMILES	Ki
Cc1cc(C(F)(F)F)ccc1-c1ccc2c(cnn2C(CC(C)C)c2ccc(C(=O)NCCC(=O)O)cc2)c1C (centres unmarked) [Compound #21, 3-(4-(3-Methyl-1-(4-methyl-5-(2-methyl-4-(trifluoromethyl)phenyl)-1H-indazol-1-yl)butyl)benzamido)propanoic acid]	0.092 µM
CCCC(c1ccc(C(=O)NCCC(=O)O)cc1)n1cc2cc(-c3ccc(C(C)(C)C)cc3)ccc2n1 (centres unmarked) [Compound #22, 3-(4-(1-(5-(4-(tert-Butyl)phenyl)-2H-indazol-2-yl)butyl)benzamido)propanoic acid]	0.8 µM
CC(C)CCC(c1ccc(C(=O)NCCC(=O)O)cc1)n1ncc2cc(-c3ccc(C(C)(C)C)cc3)ccc21 (centres unmarked) [Compound #23, 3-(4-(1-(5-(4-(tert-Butyl)phenyl)-1H-indazol-1-yl)-4-methylpentyl)benzamido)propanoic acid]	0.144 µM
CC(C)(C)c1ccc(-c2ccc3c(cnn3C(CC3CCCCC3)c3ccc(C(=O)NCCC(=O)O)cc3)c2)cc1 (centres unmarked) [Compound #24, 3-(4-(1-(5-(4-(tert-Butyl)phenyl)-1H-indazol-1-yl)-2-cyclohexylethyl)benzamido)propanoic acid]	0.114 µM
Cc1cc2c(cnn2C(CC(C)C)c2ccc(C(=O)NCCC(=O)O)cc2)cc1-c1ccc(C(F)(F)F)cc1 (centres unmarked) [Compound #25, 3-[[4-[3-Methyl-1-[6-methyl-5-[4-(trifluoromethyl)phenyl]indazol-1-yl]butyl]benzoyl]amino]propanoic acid]	0.102 µM
CCCCCCC(c1ccc(C(=O)NCCC(=O)O)cc1)n1cc2cc(-c3ccc(C(F)(F)F)cc3)ccc2n1 (centres unmarked) [Compound #26]	0.045 µM
COc1c(-c2ccc(C(F)(F)F)cc2C)ccc2c1cnn2C(CC(C)C)c1ccc(C(=O)NCCC(=O)O)cc1 (centres unmarked) [Compound #29, 3-(4-(1-(4-Methoxy-5-(2-methyl-4-(trifluoromethyl)phenyl)-1H-indazol-1-yl)-3-methylbutyl)benzamido)propanoic acid]	0.06 µM
Cc1cc(C(F)(F)F)ccc1-c1cc2cn(C(CC(C)C)c3ccc(C(=O)NCCC(=O)O)cc3)nc2cc1Cl (centres unmarked) [Compound #30, 3-[[4-[1-[6-Chloro-5-[2-methyl-4-(trifluoromethyl)phenyl]indazol-2-yl]-3-methyl-butyl]benzoyl]amino]propanoic acid]	0.044 µM
CC(C)CC(c1ccc(C(=O)NCCC(=O)O)nc1)n1cc2cc(-c3ccc(C(F)(F)F)cc3Cl)c(Cl)cc2n1 (centres unmarked) [Compound #33, 3-[[5-[1-[6-Chloro-5-[2-chloro-4-(trifluoromethyl)phenyl]indazol-2-yl]-3-methyl-butyl]pyridine-2-carbonyl]amino]propanoic acid]	0.07 µM
CC(C)CC(c1ccc(C(=O)NCCC(=O)O)cc1)n1cc2cc(-c3ccc(C(C)(C)C)cc3)ccc2n1 (centres unmarked) [Compound #34, 3-(4-(1-(5-(4-(tert-butyl)phenyl)-2H-indazol-2-yl)-3-methylbutyl)benzamido)propanoic acid]	0.086 µM
CC(C)CC(c1ccc(C(=O)NCCC(=O)O)nc1)n1ncc2cc(-c3ccc(C(C)(C)C)cc3)ccc21 (centres unmarked) [Compound #36, 3-(5-(1-(5-(4-(tert-Butyl)phenyl)-1H-indazol-1-yl)-3-methylbutyl)picolinamido)propanoic acid]	0.43 µM
Cc1cc(Cl)ccc1-c1ccc2c(cnn2C(CC(C)C)c2ccc(C(=O)NCCC(=O)O)cc2)c1 (centres unmarked) [Compound #39, 3-(4-(1-(5-(4-Chloro-2-methylphenyl)-1H-indazol-1-yl)-3-methylbutyl)benzamido)propanoic acid]	0.21 µM
Cc1cc(Cl)ccc1-c1ccc2c(cnn2C(CCC(F)(F)F)c2ccc(C(=O)NCCC(=O)O)cc2)c1 (centres unmarked) [Compound #40, 3-[[4-[1-[5-(4-Chloro-2-methyl-phenyl)indazol-1-yl]-4,4,4-trifluorobutyl]benzoyl]amino]propanoic acid]	0.49 µM
CC(C)CC(c1ccc(C(=O)NCCC(=O)O)cc1)n1ncc2cc(-c3ccc(C(F)(F)F)cc3Cl)ccc21 (centres unmarked) [Compound #41, 3-(4-(1-(5-(2-Chloro-4-(trifluoromethyl)phenyl)-1H-indazol-1-yl)-3-methylbutyl)benzamido)propanoic acid]	0.086 µM
CC(C)CC(c1ccc(C(=O)NCCC(=O)O)nc1)n1ncc2cc(-c3ccc(C(F)(F)F)cc3Cl)ccc21 (centres unmarked) [Compound #43, 3-(5-(1-(5-(2-Chloro-4-(trifluoromethyl)phenyl)-1H-indazol-1-yl)-3-methylbutyl)picolinamido)propanoic acid]	0.175 µM
Cc1cc(C(F)(F)F)ccc1-c1ccc2c(cnn2C(CCC(F)(F)F)c2ccc(C(=O)NCCC(=O)O)cc2)c1 (centres unmarked) [Compound #44, 3-[[4-[4,4,4-Trifluoro-1-[5-[2-methyl-4-(trifluoromethyl)phenyl]indazol-1-yl]butyl]benzoyl]amino]propanoic acid]	0.16 µM
O=C(O)CCNC(=O)c1ccc(C(CCC(F)(F)F)n2ncc3cc(-c4cc(Cl)cc(Cl)c4)ccc32)cc1 (centres unmarked) [Compound #45, 3-[[4-[1-[5-(3,5-Dichlorophenyl)indazol-1-yl]-4,4,4-trifluorobutyl]benzoyl]amino]propanoic acid]	1.65 µM
